Legend:
C57/BL6 mice = experiment: Inhibition of ConA Induced Hepatitis (Example B); assay type: in vivo; conditions: Mus musculus; oral, 1 hr before ConA 15 mg/kg i.v.; plasma ALT post 8-24 hrs; read-out: ED50 (amount of test compound that reduces ConA induced increase in plasma ALT level by 50%)
Experimental: Orally administer compound into normal C57/BL6 mice at several doses. After 1 hr, inject i.v. with ConA 15 mg/kg, (N=5). Post 8-24 hrs, collect plasma and liver. Measure plasma ALT enzyme level. An ED50 is determined as the amount of test compound that reduces ConA induced increase in plasma ALT level by 50%.

Full length human TBK1 = Full length human TBK1 (Homo sapiens (Human), UniProt Q9UHD2); experiment: Inhibition of TBK1 Enzyme (Example A); assay type: biochemical; conditions: -log(IC50), IC50 molar, 3 nM TBK1, 25 μM ATP, 60 min RT
In short: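 Full-length N-His human TBK1 from Sf9 baculovirus was tested with 11-point 2.5-fold dilutions (1% DMSO) in Hepes pH 7.4, MgCl2, EDTA, Brij, DTT. After 60 min RT and EDTA quench, microfluidic conversion was fitted and reported as pIC50.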

Chain of Full length human TBK1 (Q9UHD2 whole entry): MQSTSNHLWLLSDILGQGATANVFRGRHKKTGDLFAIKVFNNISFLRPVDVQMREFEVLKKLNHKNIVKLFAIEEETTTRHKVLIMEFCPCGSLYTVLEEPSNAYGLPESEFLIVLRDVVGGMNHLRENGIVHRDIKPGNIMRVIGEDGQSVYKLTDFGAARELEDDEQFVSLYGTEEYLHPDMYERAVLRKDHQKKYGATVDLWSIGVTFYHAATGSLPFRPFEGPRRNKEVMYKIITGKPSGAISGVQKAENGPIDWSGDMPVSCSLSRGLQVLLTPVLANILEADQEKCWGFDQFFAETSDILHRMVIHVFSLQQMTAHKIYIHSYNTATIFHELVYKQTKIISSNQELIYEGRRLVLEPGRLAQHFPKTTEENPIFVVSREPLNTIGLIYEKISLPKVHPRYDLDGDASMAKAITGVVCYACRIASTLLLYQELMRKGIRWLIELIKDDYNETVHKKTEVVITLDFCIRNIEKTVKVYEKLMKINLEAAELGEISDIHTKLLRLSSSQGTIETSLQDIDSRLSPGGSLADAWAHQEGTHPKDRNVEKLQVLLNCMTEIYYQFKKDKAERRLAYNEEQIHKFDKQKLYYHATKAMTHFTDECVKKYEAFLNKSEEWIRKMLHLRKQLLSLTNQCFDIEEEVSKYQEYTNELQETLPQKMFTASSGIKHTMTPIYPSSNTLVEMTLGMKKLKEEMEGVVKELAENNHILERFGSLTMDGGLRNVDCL

Row | TBK1 Inhibition (pIC50) (Full length human TBK1) | IC50 (Full length human TBK1; read-out: TBK1 Inhibition (pIC50) (converted)) [nM] | Structure (SMILES) | ED50 (C57/BL6 mice) [mg/kg]
1 | 8.1 |  | C[C@H](Nc1cc(-c2cnc(NC(=O)C3CC3)cn2)ccc1C#N)C(=O)N(C)C [Example 1, (S)-N-(5-(4-cyano-3-((1-(dimethylamino)-1-oxopropan-2-yl)amino)phenyl)pyrazin-2-yl)cyclopropanecarboxamide] | 5
2 | 6.2 |  | CN(C)C(=O)C(CC(F)(F)F)Nc1cc(-c2cnc(NC(=O)C3CC3)cn2)cnc1C#N (centres unmarked) [Example 138, N-(5-(6-cyano-5-((1-(dimethylamino)-4,4,4-trifluoro-1-oxobutan-2-yl)amino)pyridin-3-yl)pyrazin-2-yl)cyclopropanecarboxamide] | 
3 | 7.7 |  | C[C@H](Nc1cc(-c2cnc(NC(=O)C3CC3)cn2)cnc1C#N)C(=O)N1CC[C@H](F)C1 [Example 139, N-(5-(6-cyano-5-(((S)-1-((S)-3-fluoropyrrolidin-1-yl)-1-oxopropan-2-yl)amino)pyridin-3-yl)pyrazin-2-yl)cyclopropanecarboxamide] | 
4 | 7.0 |  | N#Cc1ncc(-c2cnc(NC(=O)C3CC3)cn2)cc1NCC(=O)N1CCS(=O)(=O)C1 [Example 140, N-(5-(6-cyano-5-((2-(1,1-dioxidothiazolidin-3-yl)-2-oxoethyl)amino)pyridin-3-yl)pyrazin-2-yl)cyclopropanecarboxamide] | 
5 | 8.3 |  | N#Cc1ncc(-c2cnc(NC(=O)C3CC3)cn2)cc1NCC(=O)N1CCC[C@@H]1C(F)F [Example 141, (R)-N-(5-(6-cyano-5-((2-(2-(difluoromethyl)pyrrolidin-1-yl)-2-oxoethyl)amino)pyridin-3-yl)pyrazin-2-yl)cyclopropanecarboxamide] | 
6 | 7.0 |  | N#Cc1ncc(-c2cnc(NC(=O)C3CC3)cn2)cc1NCC(=O)N1CCCC1CF (centres unmarked) [Example 143, N-(5-(6-cyano-5-((2-(2-(fluoromethyl)pyrrolidin-1-yl)-2-oxoethyl)amino)pyridin-3-yl)pyrazin-2-yl)cyclopropanecarboxamide] | 
7 | 5.6 |  | CC1CC1C(=O)Nc1cnc(-c2cnc(C#N)c(NCC(N)=O)c2)cn1 (centres unmarked) [Example 144, N-(5-(5-((2-amino-2-oxoethyl)amino)-6-cyanopyridin-3-yl)pyrazin-2-yl)-2-methylcyclopropanecarboxamide] | 
8 | 7.1 |  | CC1CC1C(=O)Nc1cnc(-c2cnc(C#N)c(NCC(=O)N(C)C)c2)cn1 (centres unmarked) [Example 145, N-(5-(6-cyano-5-((2-(dimethylamino)-2-oxoethyl)amino)pyridin-3-yl)pyrazin-2-yl)-2-methylcyclopropanecarboxamide] | 
9 | 8.1 |  | C[C@H](Nc1cc(-c2cnc(NC(=O)C3CC3CO)cn2)cnc1C#N)C(=O)N(C)CC(F)F (stereo partly drawn) [Example 146, N-(5-(6-cyano-5-(((S)-1-((2,2-difluoroethyl)(methyl)amino)-1-oxopropan-2-yl)amino)pyridin-3-yl)pyrazin-2-yl)-2-(hydroxymethyl)cyclopropanecarboxamide] | 
10 |  | 398 | CC[C@H](Nc1cc(-c2cnc(NC(=O)C3CC(C)(O)C3)cn2)cnc1C#N)C(=O)N(C)C (stereo partly drawn) [Example 147, (S)-N-(5-(6-cyano-5-((1-(dimethylamino)-1-oxobutan-2-yl)amino)pyridin-3-yl)pyrazin-2-yl)-3-hydroxy-3-methylcyclobutanecarboxamide] | 
